# Laboratory results published in patent publication US7109193B2, “Tricyclic diazepines tocolytic oxytocin receptor antagonists” (Wyeth, priority 2001, dated 2006).
# Target: T1, human vasopressin V1a receptor subtype (Homo sapiens, UniProt P37288)
# T1 construct: host or cells: CHO cells (pZeoSV vector for the Thibonnier line)
# Experiment: Vasopressin binding in Chinese Hamster Ovary cell membranes expressing human vasopressin V1a subtype receptors
# Details: 100 nM, CHO cell membranes, [3H]Manning ligand, values without parentheses
# Summary of the method: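 Displacement of [3H]Manning ligand (8 nM working solution) from human V1a receptors in CHO cell membranes, 25–50 μg protein per well. Incubation ran 60 min at room temperature in 50 mM Tris-HCl pH 7.4 with protease inhibitors, followed by filtration and scintillation counting. Results are given as IC50 or percent inhibition.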
# T1 sequence (P37288 whole entry): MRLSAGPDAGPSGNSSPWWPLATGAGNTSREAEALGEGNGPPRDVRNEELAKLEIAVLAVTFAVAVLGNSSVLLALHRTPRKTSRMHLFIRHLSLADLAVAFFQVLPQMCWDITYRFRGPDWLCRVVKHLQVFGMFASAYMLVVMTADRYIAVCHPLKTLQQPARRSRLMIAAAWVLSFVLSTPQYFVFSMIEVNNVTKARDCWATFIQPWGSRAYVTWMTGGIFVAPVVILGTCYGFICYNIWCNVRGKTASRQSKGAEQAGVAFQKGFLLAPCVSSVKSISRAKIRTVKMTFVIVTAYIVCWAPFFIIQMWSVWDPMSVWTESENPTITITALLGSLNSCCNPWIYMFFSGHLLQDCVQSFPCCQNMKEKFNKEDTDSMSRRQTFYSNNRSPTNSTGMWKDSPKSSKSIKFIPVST
row,inhibition at 0.1 µM [%],SMILES
1,5,"COc1ccccc1-c1ccc(C(=O)N2Cc3ccc(C(=O)N4CCN(C)CC4)n3Cc3ccccc32)cc1C [Example 49, {10-[(2′-Methoxy-2-methyl[1,1′-biphenyl]-4-yl)carbonyl]-10,11-dihydro-5H-pyrrolo[2,1-c][1,4]benzodiazepin-3-yl}(4-methyl-1-piperazinyl)methanone]"
2,10,"COc1ccccc1-c1ccc(C(=O)N2Cc3ccc(C(=O)N4CCCN(C)CC4)n3Cc3ccccc32)cc1C [Example 62, {10-[(2′-Methoxy-2-methyl[1,1′-biphenyl]-4-yl)carbonyl]-10,11-dihydro-5H-pyrrolo[2,1-c][1,4]benzodiazepin-3-yl}(4-methyl-1,4-diazepan-1-yl)methanone]"
3,9,"COc1cc(C(=O)N2Cc3ccc(C(=O)N4CCN(C(C)C)CC4)n3Cc3ccccc32)ccc1-n1c(C)ccc1C [Example 319, {10-[4-(2,5-Dimethyl-1H-pyrrol-1-yl)-3-methoxybenzoyl]-10,11-dihydro-5H-pyrrolo[2,1-c][1,4]benzodiazepin-3-yl}(4-isopropyl-1-piperazinyl)methanone]"
4,12,"Cc1ccccc1-c1ccc(C(=O)N2Cc3ccc(C(=O)N4CCN(CCCN(C)C)CC4)n3Cc3ccccc32)cc1 [Example 249, {4-[3-(Dimethylamino)propyl]-1-piperazinyl}{10-[(2′-methyl[1,1′-biphenyl]-4-yl)carbonyl]-10,11-dihydro-5H-pyrrolo[2,1-c][1,4]benzodiazepin-3-yl}methanone]"
5,15,"COc1cccc(-c2ccc(C(=O)N3Cc4ccc(C(=O)N5CCN(C)CC5)n4Cc4ccccc43)cc2OC)c1 [Example 57, {10-[(2,3′-Dimethoxy[1,1′-biphenyl]-4-yl)carbonyl]-10,11-dihydro-5H-pyrrolo[2,1-c][1,4]benzodiazepin-3-yl}(4-methyl-1-piperazinyl)methanone]"
6,5,"CC(C)N1CCN(C(=O)c2ccc3n2Cc2ccccc2N(C(=O)c2ccc(-c4cccc5ccccc45)cc2Cl)C3)CC1 [Example 243, {10-[2-Chloro-4-(1-naphthyl)benzoyl]-10,11-dihydro-5H-pyrrolo[2,1-c][1,4]benzodiazepin-3-yl}(4-isopropyl-1-piperazinyl)methanone]"
7,16,"COc1cc(C(=O)N2Cc3ccc(C(=O)N4CCN(CCCN(C)C)CC4)n3Cc3ccccc32)ccc1-c1cccc2ccccc12 [Example 253, {4-[3-(Dimethylamino)propyl]-1-piperazinyl}{10-[3-methoxy-4-(1-naphthyl)benzoyl]-10,11-dihydro-5H-pyrrolo[2,1-c][1,4]benzodiazepin-3-yl}methanone]"
8,52,"COc1cc(C(=O)N2Cc3ccc(C(=O)N4CCCN(C)CC4)n3Cc3ccccc32)ccc1-c1ccccc1C [Example 66, {10-[(2-Methoxy-2′-methyl[1,1′-biphenyl]-4-yl)carbonyl]-10,11-dihydro-5H-pyrrolo[2,1-c][1,4]benzodiazepin-3-yl}(4-methyl-1,4-diazepan-1-yl)methanone]"
9,40,"Cc1ccccc1-c1ccc(C(=O)N2Cc3ccc(C(=O)N4CCCN(C)CC4)n3Cc3ccccc32)cc1 [Example 65, {10-[(2′-Methyl[1,1′-biphenyl]-4-yl)carbonyl]-10,11-dihydro-5H-pyrrolo[2,1-c][1,4]benzodiazepin-3-yl}(4-methyl-1,4-diazepan-1-yl)methanone]"

# Second part, the compound before the results:
row,SMILES,inhibition at 0.1 µM [%]
1,"COc1cc(C(=O)N2Cc3cccn3Cc3ccccc32)ccc1-c1ccccc1C(F)(F)F [Example 19D, (10,11-Dihydro-5H-pyrrolo[2,1-c][1,4]benzodiazepin-10-yl)-(2-methoxy-2′-trifluoromethyl-[1,1′-biphenyl]-4-yl)-methanone]",51
2,"COc1ccccc1-c1ccc(C(=O)N2Cc3ccc(C(=O)N[C@H]4CN5CCC4CC5)n3Cc3ccccc32)cc1OC [Example 299, N-[(3R)-1-Azabicyclo[2.2.2]oct-3-yl]-10-[(2,2′-dimethoxy[1,1′-biphenyl]-4-yl)carbonyl]-10,11-dihydro-5H-pyrrolo[2,1-c][1,4]benzodiazepine-3-carboxamide]",14
3,"COc1cc(C(=O)N2Cc3ccc(C(=O)N4CCN(CCN(C)C)CC4)n3Cc3ccccc32)ccc1-n1c(C)ccc1C [Example 316, {4-[2-(Dimethylamino)ethyl]-1-piperazinyl}{10-[4-(2,5-dimethyl-1H-pyrrol-1-yl)-3-methoxybenzoyl]-10,11-dihydro-5H-pyrrolo[2,1-c][1,4]benzodiazepin-3-yl}methanone]",0
4,"COc1cccc(-c2cc(OC)c(C(=O)N3Cc4ccc(C(=O)N[C@@H](CCCCNC(=O)OC(C)(C)C)C(N)=O)n4Cc4ccccc43)cc2Cl)c1 [Example 302, tert-Butyl (5S)-6-amino-5-[({10-[(6-chloro-3,3′-dimethoxy[1,1′-biphenyl]-4-yl)carbonyl]-10,11-dihydro-5H-pyrrolo[2,1-c][1,4]benzodiazepin-3-yl}carbonyl)amino]-6-oxohexylcarbamate]",-15
5,"COc1cc(C(=O)N2Cc3ccc(C(=O)NCCC4CCCN4C)n3Cc3ccccc32)ccc1-n1c(C)ccc1C (centres unmarked) [Example 315, 10-[4-(2,5-Dimethyl-1H-pyrrol-1-yl)-3-methoxybenzoyl]-N-[2-(1-methyl-2-pyrrolidinyl)ethyl]-10,11-dihydro-5H-pyrrolo[2,1-c][1,4]benzodiazepine-3-carboxamide]",7
6,"COc1ccccc1-c1ccc(C(=O)N2Cc3ccc(C(=O)N[C@@H]4CN5CCC4CC5)n3Cc3ccccc32)cc1OC [Example 300, N-[(3S)-1-Azabicyclo[2.2.2]oct-3-yl]-10-[(2,2′-dimethoxy[1,1′-biphenyl]-4-yl)carbonyl]-10,11-dihydro-5H-pyrrolo[2,1-c][1,4]benzodiazepine-3-carboxamide]",-2
7,"COc1cc(-c2ccccc2C)c(Cl)cc1C(=O)N1Cc2ccc(C(=O)N[C@@H]3CN4CCC3CC4)n2Cc2ccccc21 [Example 297, N-[(3S)-1-Azabicyclo[2.2.2]oct-3-yl]-10-[(6-chloro-3-methoxy-2′-methyl-[1,1′-biphenyl]-4-yl)carbonyl]-10,11-dihydro-5H-pyrrolo[2,1-c][1,4]benzodiazepine-3-carboxamide]",-2
8,"Cc1cc(C(=O)N2Cc3ccc(C(=O)n4ccnc4)n3Cc3ccccc32)ccc1-c1ccccc1C(F)(F)F [Example 294, 1H-Imidazol-1-yl(10-{[2-methyl-2′-(trifluoromethyl)[1,1′-biphenyl]-4-yl]carbonyl}-10,11-dihydro-5H-pyrrolo[2,1-c][1,4]benzodiazepin-3-yl)methanone]",-3
9,"COc1cc(C(=O)N2Cc3ccc(C(=O)NCCCN(C)C)n3Cc3ccccc32)ccc1-c1ccccc1C [Example 77, N-[3-(Dimethylamino)propyl]-10-[(2-methoxy-2′-methyl[1,1′-biphenyl]-4-yl)carbonyl]-10,11-dihydro-5H-pyrrolo[2,1-c][1,4]benzodiazepine-3-carboxamide]",44
10,"Cc1cc(C(=O)N2Cc3cccn3Cc3ncccc32)ccc1-c1ccccc1C(F)(F)F [Example 323F, (2-Methyl-2′-trifluoromethyl-[1,1′-biphenyl]-4-yl)-(4H,10H-3a,5,9-triaza-benzo[f]azulen-9-yl)-methanone]",2
11,"COc1cccc(-c2cc(OC)c(C(=O)N3Cc4ccc(C(=O)N5CCN(CCCN(C)C)CC5)n4Cc4ccccc43)cc2Cl)c1 [Example 252, {10-[(6-Chloro-3,3′-dimethoxy[1,1′-biphenyl]-4-yl)carbonyl]-10,11-dihydro-5H-pyrrolo[2,1-c][1,4]benzodiazepin-3-yl}{4-[3-(dimethylamino)propyl]-1-piperazinyl}methanone]",8
12,"Cc1cc(C(=O)N2Cc3ccc(C(=O)N[C@H]4CN5CCC4CC5)n3Cc3ccccc32)ccc1-c1ccccc1C(F)(F)F [Example 301, N-[(3R)-1-Azabicyclo[2.2.2]oct-3-yl]-10-{[2-methyl-2′-(trifluoromethyl)[1,1′-biphenyl]-4-yl]carbonyl}-10,11-dihydro-5H-pyrrolo[2,1-c][1,4]benzodiazepine-3-carboxamide]",1
13,"COc1ccccc1-c1ccc(C(=O)N2Cc3ccc(C(=O)n4ccnc4)n3Cc3ccccc32)cc1OC [Example 293, {10-[(2,2′-Dimethoxy[1,1′-biphenyl]-4-yl)carbonyl]-10,11-dihydro-5H-pyrrolo[2,1-c][1,4]benzodiazepin-3-yl}(1H-imidazol-1-yl)methanone]",2
14,"COc1ccccc1-c1ccc(C(=O)N2Cc3ccc(C(=O)n4ccnc4)n3Cc3ccccc32)cc1C [Example 292, 1H-Imidazol-1-yl-{10-[(2′-methoxy-2-methyl[1,1′-biphenyl]-4-yl)carbonyl]-10,11-dihydro-5H-pyrrolo[2,1-c][1,4]benzodiazepin-3-yl}methanone]",6
15,"COc1cc(C(=O)N2Cc3ccc(C(=O)NCCN4CCCCC4)n3Cc3ccccc32)ccc1-n1c(C)ccc1C [Example 314, 10-[4-(2,5-Dimethyl-1H-pyrrol-1-yl)-3-methoxybenzoyl]-N-[2-(1-piperidinyl)ethyl]-10,11-dihydro-5H-pyrrolo[2,1-c][1,4]benzodiazepine-3-carboxamide]",6
16,"COc1ccccc1-c1ccc(C(=O)N2Cc3ccc(C(=O)N[C@@H]4CN5CCC4CC5)n3Cc3ccccc32)cc1C [Example 295, N-[(3S)-1-Azabicyclo[2.2.2]oct-3-yl]-10-[(2′-methoxy-2-methyl[1,1′-biphenyl]-4-yl)carbonyl]-10,11-dihydro-5H-pyrrolo[2,1-c][1,4]benzodiazepine-3-carboxamide]",6
17,"Cc1ccccc1-c1ccc(C(=O)N2Cc3ccc(C(=O)NCCCN(C)C)n3Cc3ccccc32)cc1 [Example 76, N-[3-(Dimethylamino)propyl]-10-[(2′-methyl[1,1′-biphenyl]-4-yl)carbonyl]-10,11-dihydro-5H-pyrrolo[2,1-c][1,4]benzodiazepine-3-carboxamide]",58
